Test results published in BigSolDB 2.1.

Cc1n[nH]c(=S)s1
solubility (mole fraction)
Conditions | 283.15 K | 288.15 K | 293.15 K | 298.15 K | 303.15 K | 308.15 K | 313.15 K | 318.15 K | 323.15 K
in ethanol | 0.0105 | 0.0131 | 0.0156 | 0.0184 | 0.0219 | 0.0249 | 0.0297 | 0.0342 | 0.04
in ethyl acetate | 0.0152 | 0.0173 | 0.0197 | 0.0221 | 0.0244 | 0.0272 | 0.0307 | 0.0338 | 0.038
in ethyl formate | 0.00842 | 0.01 | 0.0114 | 0.0134 | 0.0151 | 0.0176 | 0.0202 | 0.0227 | 0.0257
in isobutanol | 0.00538 | 0.00689 | 0.00881 | 0.0112 | 0.0143 | 0.0172 | 0.0216 | 0.0271 | 0.0319
in isopropanol | 0.00763 | 0.00943 | 0.0115 | 0.0143 | 0.0179 | 0.0215 | 0.0258 | 0.0314 | 0.0374
in methanol | 0.0104 | 0.0129 | 0.0153 | 0.018 | 0.0213 | 0.0246 | 0.0292 | 0.0337 | 0.0396
in methyl acetate | 0.0167 | 0.0189 | 0.021 | 0.0234 | 0.0257 | 0.0284 | 0.0313 | 0.0342 | 0.0382
in n-butanol | 0.00723 | 0.00904 | 0.0109 | 0.0136 | 0.0164 | 0.0194 | 0.0239 | 0.0287 | 0.0333
in n-butyl acetate | 0.0135 | 0.0153 | 0.0172 | 0.0194 | 0.022 | 0.0246 | 0.0274 | 0.0304 | 0.0336
in n-pentyl acetate | 0.0117 | 0.0137 | 0.0157 | 0.0178 | 0.0203 | 0.0229 | 0.0261 | 0.0289 | 0.0334
in n-propanol | 0.0097 | 0.0119 | 0.0145 | 0.0171 | 0.0206 | 0.0243 | 0.0288 | 0.033 | 0.0389
in n-propyl acetate | 0.0146 | 0.0163 | 0.0187 | 0.0213 | 0.0237 | 0.0266 | 0.0301 | 0.033 | 0.0368
